Test results taken from ChEMBL document CHEMBL4842322, “A naphthalimide-polyamine conjugate preferentially accumulates in hepatic carcinoma metastases as a lysosome-targeted antimetastatic agent” (Eur J Med Chem, 2021).
The source made the active and inactive calls. No cut-off for these calls is given here.

Legend:
Huh-7 [1] = assay: Downregulation of Spermidine contents in human Huh-7 cells measured after 24 hrs by HPLC analysis; type: functional, cell-based
Huh-7 [2] = assay: Downregulation of Spermine contents in human Huh-7 cells measured after 24 hrs by HPLC analysis; type: functional, cell-based
HepG2 [3] = assay: Induction of apoptosis in human HepG2 cells assessed as induction of DNA damage by measuring upregulation of gammaH2AX expression at 5 to 15 uM; type: functional, cell-based; conditions: dose 5-15 µM
[4] = Antitumor activity against human HCC cells xenografted in BALB/c mouse assessed as tumor volume administered iv once daily for 7 days measured on day 7 (reference value: 910 mm3); type: functional; conditions: time 7 day
[5] = Toxicity in BALB/c mouse xenografted with human HCC cells assessed as body weight at 1 to 5 mg/kg, iv administered once daily for 7 days; type: organism-based; conditions: in vivo, 168 h, dose 1-5 mg/kg, time 7 day
[6] = Toxicity in BALB/c mouse xenografted with human HCC cells assessed as effect on heart weight index at 1 to 5 mg/kg, iv administered once daily for 7 days; type: organism-based; conditions: in vivo, 168 h, dose 1-5 mg/kg, time 7 day
[7] = Toxicity in BALB/c mouse xenografted with human HCC cells assessed as effect on liver weight index at 1 to 5 mg/kg, iv administered once daily for 7 days; type: organism-based; conditions: in vivo, 168 h, dose 1-5 mg/kg, time 7 day
[8] = Toxicity in BALB/c mouse xenografted with human HCC cells assessed as effect on spleen weight index at 1 to 5 mg/kg, iv administered once daily for 7 days; type: organism-based; conditions: in vivo, 168 h, dose 1-5 mg/kg, time 7 day
[9] = Toxicity in BALB/c mouse xenografted with human HCC cells assessed as effect on kidney weight index at 1 to 5 mg/kg, iv administered once daily for 7 days; type: organism-based; conditions: in vivo, 168 h, dose 1-5 mg/kg, time 7 day
[10] = Toxicity in BALB/c mouse xenografted with human HCC cells assessed as effect on lung weight index at 1 to 5 mg/kg, iv administered once daily for 7 days; type: organism-based; conditions: in vivo, 168 h, dose 1-5 mg/kg, time 7 day
[11] = Toxicity in BALB/c mouse xenografted with human HCC cells assessed as effect on body weight at 1 to 5 mg/kg, iv administered once every 2 days for 14 days; type: organism-based; conditions: in vivo, 336 h, dose 1-5 mg/kg, time 14 day
[12] = Drug uptake in endoplasmic reticulum of human HepG2 cells at 10 uM incubated for 8 hrs by ER-tarcker dye based laser confocal microscopy; type: ADME, subcellular; conditions: hepg2, 8 h
[13] = Drug uptake in mitochondria of human HepG2 cells at 10 uM incubated for 8 hrs by Mito-tarcker dye based laser confocal microscopy; type: ADME; conditions: hepg2, 8 h
[14] = Drug uptake in golgi apparatus of human HepG2 cells at 10 uM incubated for 8 hrs by Golgi-tracker dye based laser confocal microscopy; type: ADME, subcellular, Golgi body; conditions: hepg2, 8 h
[15] = Drug uptake in lysosomes of human HepG2 cells at 10 uM incubated for 8 hrs by Lyso-tracker dye based laser confocal microscopy; type: ADME, subcellular, Lysosome; conditions: hepg2, 8 h
A549 [16] = assay: Inhibition of tumor metastasis in cisplatin-resistant human A549 cells assessed as downregulation of HMGB1 protein expression level measured after 24 hrs by western blot analysis; type: functional, cell-based; conditions: dose 5-15 µM
A549 [17] = assay: Inhibition of tumor metastasis in cisplatin-resistant human A549 cells assessed as downregulation of LC3-II protein expression level at 5 to 15 uM measured after 24 hrs by western blot analysis; type: functional, cell-based; conditions: dose 5-15 µM
A549 [18] = assay: Inhibition of tumor metastasis in cisplatin-resistant human A549 cells assessed as upregulation of LC3-I protein expression level at 5 to 15 uM measured after 24 hrs by western blot analysis; type: functional, cell-based; conditions: dose 5-15 µM
HepG2 [19] = assay: Inhibition of tumor metastasis in human HepG2 cells assessed as upregulation of p53 gene expression level at 5 to 15 uM measured after 24 hrs by qRT-PCR analysis; type: functional, cell-based; conditions: dose 5-15 µM
HepG2 [20] = assay: Inhibition of tumor metastasis in human HepG2 cells assessed as upregulation of SSAT protein expression level at 5 to 15 uM measured after 24 hrs by western blot analysis; type: functional, cell-based; conditions: dose 5-15 µM
A549 [21] = assay: Inhibition of tumor metastasis in cisplatin-resistant human A549 cells assessed as upregulation of p62 protein expression level at 5 to 15 uM measured after 24 hrs by western blot analysis; type: functional, cell-based; conditions: dose 5-15 µM
HepG2 [22] = assay: Potency index, ratio of amonafide IC50 to test compound IC50 for human HepG2 cells by MTT assay; type: functional
HepG2 [23] = assay: Potency index, ratio of cisplatin IC50 to test compound IC50 for human HepG2 cells by MTT assay; type: functional
Huh-7 [24] = assay: Potency index, ratio of amonafide IC50 to test compound IC50 for human Huh-7 cells by MTT assay; type: functional
Huh-7 [25] = assay: Potency index, ratio of cisplatin IC50 to test compound IC50 for human Huh-7 cells by MTT assay; type: functional
[26] = Ratio of amonafide IC50 to test compound IC50 for human MDA-MB-231 cells by MTT assay; type: functional
MDA-MB-231 = assay: Potency index, ratio of cisplatin IC50 to test compound IC50 for human MDA-MB-231 cells by MTT assay; type: functional
[27] = Ratio of amonafide IC50 to test compound IC50 for human MCF7 cells by MTT assay; type: functional
[28] = Ratio of cisplatin IC50 to test compound IC50 for human MCF7 cells by MTT assay; type: functional
A549 [29] = assay: Potency index, ratio of amonafide IC50 to test compound IC50 for human A549 cells by MTT assay; type: functional
[30] = Ratio of cisplatin IC50 to test compound IC50 for human A549 cells by MTT assay; type: functional
[31] = Ratio of amonafide IC50 to test compound IC50 for cisplatin-resistant human A549 cells by MTT assay; type: functional
[32] = Potency index, ratio of cisplatin IC50 to test compound IC50 for cisplatin-resistant human A549 cells by MTT assay; type: functional

Drug uptake [12]: Not Active | Drug uptake [13]: Not Active | Drug uptake [14]: Not Active | Drug uptake [15]: Active
Structure (SMILES): NCCCCNCCCCNCCCCN1C(=O)c2cccc3cc(NC(=O)CN)cc(c23)C1=O
inhibition (Huh-7 [1]): Active | inhibition (Huh-7 [2]): Active | Activity (HepG2 [3]): Active | Activity [4]: 400 mm3 | Activity [5]: Non-Toxic | Activity [6]: Non-Toxic | Activity [7]: Non-Toxic | Activity [8]: Non-Toxic | Activity [9]: Non-Toxic | Activity [10]: Non-Toxic | Activity [11]: Non-Toxic | inhibition (A549 [16]): Dose-Dependent Effect | inhibition (A549 [17]): Active | inhibition (A549 [18]): Active | inhibition (HepG2 [19]): Active | inhibition (HepG2 [20]): Active | inhibition (A549 [21]): Active | Ratio IC50 (HepG2 [22]): 7.1 | Ratio IC50 (HepG2 [23]): 6.74 | Ratio IC50 (Huh-7 [24]): 8.69 | Ratio IC50 (Huh-7 [25]): 15.33 | Ratio IC50 [26]: 0.99 | Ratio IC50 (MDA-MB-231): 2.11 | Ratio IC50 [27]: 0.67 | Ratio IC50 [28]: 0.59 | Ratio IC50 (A549 [29]): 1.15 | Ratio IC50 [30]: 0.5 | Ratio IC50 [31]: 0.62 | Ratio IC50 [32]: 2.76
